Laboratory results from patent publication US6979447B2, “Immunomodulation and effect on cell processes relating to serotonin family receptors” (Philadelphia Health and Education Corporation, priority 2001, dated 2005).
“Also recorded” adds a separate entry of the source.

Experiments:
T cells = test: Macrophage media-conditioning study, T cell proliferation in conditioned media; type: cell-based, mouse; conditions: for conditioning effect of the media: uptake inhibitor present during the conditioning phase
Source text: Femur and tibia bones were harvested from the hind limbs of 6-8 week old C57/B6J mice (Jackson Laboratories, Bar Harbor, Me.). The distal ends of the bones were removed, exposing the marrow plugs. Using a 22 gauge needle (Becton-Dickinson, Lincoln Park, N.J.), the marrow cavities were flushed with RPMI medium supplemented 2% FBS. The cell suspension was then passed through a nylon mesh to remove stromal cells. Red blood cells were lysed using ACK (ammonium chloride potassium lysis buffer; 0.15 M NH4Cl, 10 mM KHCO3, 0.1 mM EDTA) buffer as described in Current Protocols in Immunology (Section 3.1.5).
Cells were resuspended at 10^7 cells/ml in RPMI medium, containing 10% FBS, 500 units/ml of murine M-CSF, and 3 ml/well of cell suspension were plated onto a 6 well flat-bottom plate. […] Cells were grown for 4 days. Spleens of 6-8 week old BALB/c/BYJ were harvested, and single cell suspension was made. Red blood cells were removed as described above. Adherent cells were removed by 1.5 hour incubation on a nylon wool column, and suspension cells were collected. The BALB/c cells were then plated over the C57/B6 cells (see supra), at 1.2×10^6 cells/well, in 0.65 ml (bringing brought the final volume of each well to 1.3 ml). The cells were grown for 2.5 days. When appropriate, fluoxetine or BCH were added at the beginning of this incubation. The medium from the mixed cell cultures was harvested, centrifuged at 1200 RPM to remove cells, and filtered using a 0.22 microns syringe filter (Corning). This filtered medium was used to support another round of cell proliferation.

human lymphocytes [1] = test: Human mitogenic (ConA) stimulation, 3H-thymidine incorporation; type: cell-based; conditions: for effect on stimulation of ConA-stimulated human PBLs: reagents at 400 μM, time course, FIG. 4; for effect on activation / proliferative response: ConA 5 μg/ml, harvested 72 hours, FIGS. 7A, 8A, 9A
Experimental: Blood from healthy volunteers was drawn using venipuncture, using Vacutainer collection sets and heparinized collection vials. The blood was diluted 1:1 using HBSS to a total volume of 30 ml in 50 ml conical tubes (Fisher Scientific, Co., Pittsburgh, Pa.). […] Cells from the buffy coats were collected and the residual Histopaque was washed away using repeated centrifugations in HBSS. After washes, cells were resuspended at 5 million cells per ml in RPMI, supplemented with 2% FBS. To remove adherent cells, the suspension was plated onto a 6 well flat-bottom plate (Corning Costar), 3 ml/well, and incubated for 2 hours at 37° C., 5% CO2. Non-adherent cells were harvested after this incubation, were counted and resuspended in RPMI supplemented with 10% human serum (Sigma).
All drugs were pre-plated before the cell suspension was added onto each well of a 96-well round-bottom plate. All experimental conditions were assayed in at least triplicate. Cells suspended in RPMI supplemented with 10% human serum were plated at 100,000 cells per well to a final volume of 200 μl. […] Control samples received no ConA stimulation. The plates were incubated at 37° C. and 5% CO2. One microCurie of tritiated thymidine was added to each well after 60 hours, and the plates were harvested 12 hours later.

RPMI-8226 cells = test: Hematoxylin-eosin / bis-benzamide staining of RPMI-8226 cytospins; type: cell-based, human; conditions: 2 μM, 9 hour treatment, FIG. 28
Experimental: 2.0×10^5 RPMI-8226 cells were cultured, in 6-well culture plates, in the presence of the indicated drug concentrations, in a total of 5 mL RPMI-1640 supplemented with 10% FBS. Each well was harvested in its entirety and divided into two identical samples for cytospins.
1.0×10^5 RPMI-8226 cells from each treatment group were loaded into Cyto-funnels and centrifuged at 500 rpm for 4 minutes with medium acceleration. Slides were then fixed through graded methanol in PBS (100%, 5 minutes; 80%, 5 minutes; 50%, 5 minutes), washed for 5 minutes in PBS and stored in PBS at 4° C. until stained.
Cytospun slides were stained with Hematoxylin and Eosin, followed by the nuclear stain, bis-benzamide, rinsed and mounted according to standard staining protocols. Slides were visualized under both brightfield and fluorescent light to generate matched images of the same slide field (see, e.g., FIGS. 28 and 29).

[2] = tested on: allogeneic CTL response to P815 cells; test: Murine allograft model, CTL killing of P815 target cells by splenocytes; type: in vivo, C57BL/6J mice; conditions: for effect on allogeneic killing response: tail vein 300 μg/injection on days 5 and 7, sacrificed day 14, FIGS. 18A, 18B; for effect on allograft (CTL) response: tail vein bolus 200 μg/injection on days 6 and 8, sacrificed day 14, FIG. 13
Experimental: The in vivo validation screen used was an art-recognized murine allogeneic rejection model as described in Zhan et al., 2000. For this assay, a complete MHC miss-match system was employed wherein 5×10^6 P815 cells ([H-2^d] DBA/2 mastocytoma) were injected into the peritoneal cavity of C57BL/6J (H-2^b) mice on day 0 of the experiment. These mice typically generate a strong cytotoxic T lymphocyte (CTL) reaction in response to P815 cells. Following the initial P815 cell inoculation, the mice were allowed to develop a CTL response (this usually takes about 10-14 days). […] Mice were then sacrificed on day 14 of the experiment as indicated in the figures; and the allogeneic CTL response was assayed as described previously (Tretiakova et al., 2000, Nature Biotechnology 18:984-988). The primary spleen cells from the treated and untreated animals were used in the direct CTL readout. Freshly obtained primary spleen cells were incubated with the [^3H] labeled target cells (P815 cells) at 100:1, 50:1, 25:1, and 12.5:1 ratios for 3.5 hours at 37° C. and harvested using a PHD harvester. The percentage of specific killing was determined using the formula % kill=(S−E)/S, where S is the amount of the DNA retained by the target cells in the absence of the effector cells and E is the amount of retained DNA in the presence of the effector cells (expressed in counts per minute; cpm).
This is an art-recognized model of allograft […] rejection based on that described by […]. (2000). In this model, there is a complete MHC mismatch between the P815 cells (H-2^d) and the C57BL6 mouse (H-2^b), thus ensuring an aggressive immune response. The data disclosed in FIG. 13, depicts results of experiments that included 6 treatment groups, each group consisting of three mice. Each mouse received 5×10^6 P815 cells injected into the peritoneal cavity on day 0 of the study. The first group was an untreated control group, which was used to establish the baseline response of the mice against the allogeneic stimulus. These mice, without any further treatments, were sacrificed, as were the other treatment groups, on day 14 of the study and their splenocytes assayed for target-specific killing of the P815 cells.
The average kill observed for the untreated group was about 45% at an effector to target ratio of 100:1. […] The timing of the drug administration was selected to ensure that the T cells were fully activated prior to the drug treatment. The third group was treated with propanolol, a 5HT-1 antagonist. All of the 5HT receptor antagonist-treated groups were treated as described for the risperidone-treated group. The fourth group was treated chronically with CyclosporinA. The Cyclosporin A was administered ip at a dosage of 100 μg/injection starting two days prior to the onset of the study, i.e., at day-2, and the injections were continued on a daily basis for the duration of the study.
Finally, studies conducted in vivo using the CD8-dependent allograft rejection model, in which P815 cells (a rapidly growing cell line taken from a mastocytoma in a DBA mouse), were expanded and used to create a robust rejection response in a C57BL6 mouse. In this study the mice received 5×10^6 P815 cells injected into their peritoneal cavity on day 0 of the study. The first group was an untreated control group (naïve animals), used to acquire the baseline response of the mice against the allogeneic stimulus. The positive controls were treated with the allogeneic cells without any further treatments. These animals were used to assess the induced allogeneic response against the P815 cells.
All treatment groups were sacrificed on day 14 of the study and their splenocytes assayed for target-specific killing of the P815 cells (the averaged overall kill observed for the positive control group was about 45% at an effector to target ratio of 100:1). The serotonin-specific compounds were administered via tail vein injection (300 μg/injection) on days 5 and 7 of the study. […]

human lymphocytes [3] = test: Human mixed lymphocyte reaction (allogeneic stimulation); type: cell-based; conditions: allogeneic stimulation, harvested 120 hours, FIGS. 7B, 8B, 9B
Source text: Blood from two healthy, non-related, donors was taken as described above. Peripheral blood mononuclear cells were isolated as described previously elsewhere. The adherent cells were separated from the suspension cells as described previously for both donors. Suspension cells from both donors (donors A and B) were used as responders. The remaining adherent cells from each of the donors were used as stimulators against a different donor (suspension A against adherent B and adherent A against suspension B). The stimulator cells were irradiated at 35 Gy. Drugs were pre-plated onto 96 well, U-bottom plates in triplicate. 200,000 “stimulator” cells in RPMI supplemented with 10% human serum were then plated in each well. 200,000 “responder” cells in the same medium were then plated over stimulators to a final volume of 200 μl/well. Background controls received either no stimulator cells, or no responder cells. The plates were incubated at 37° C. and 5% CO2. 1 μCi of tritiated thymidine was added to each well after 4.5 days, and the plates were harvested 12 hours later.

## NCCc1c[nH]c2ccc(O)cc12 [serotonin, 5-hydroxytryptamine]
T cells; added to conditioned media, FIG. 1
  restoration of T cell proliferation in conditioned media: only marginally restored the assay
Human lymphocytes [1]; ConA 1 μg/ml, added to phenelzine-inhibited cells, 100 μM each, FIG. 6
  relief of phenelzine-induced inhibition: caused the assay to rebound to baseline levels
Human lymphocytes [1]; ConA 1 μg/ml, reagent 100 μM, FIG. 6
  effect on proliferative response: did not
Human lymphocytes [1]; ConA 0.1, 1 and 10 μg/ml, harvest 72 hours, FIG. 5
  effect on the assay across ConA concentrations: no effect on the assay until the highest dose of ConA
Human lymphocytes [1]
  effect on stimulation of ConA-stimulated human PBLs: enhanced the maximal stimulation of the cells

## CC[C@@]1(O)C(=O)OCc2c1cc1n(c2=O)Cc2cc3ccccc3nc2-1 [camptothecin]
RPMI-8226 cells
  chromatin / nuclear morphology: Extensive chromatin condensation and nuclear fragmentation

## CC[C@@H](CO)NC(=O)[C@@H]1C=C2c3cccc4c3c(cn4C)C[C@H]2N(C)C1 [methysergide]
[2]
  effect on allogeneic killing response: complete inhibition of the induced killing response; also recorded: abrogated the allogeneic killing response; also recorded: inhibition profile was striking
  effect on allograft (CTL) response: inhibited the allograft response to varying degrees

## Cn1ccc2cc3c(cc21)CCN3C(=O)Nc1cccnc1 [SB 206553]
Human lymphocytes [1]
  effect on activation / proliferative response: inhibit the activation response at pharmacologically relevant concentrations
  in vitro effect on activation response / helper T cell proliferation (summary statement): immediate cessation of proliferation
Human lymphocytes [3]
  effect on activation / proliferative response: inhibit the activation response at pharmacologically relevant concentrations
[2]
  effect on allogeneic killing response: striking
  effect on allograft (CTL) response: inhibited the allograft response to varying degrees
[2]; three treated mice, FIG. 14
  individual mouse responses within treated group: Two of the treated mice had the allogeneic response completely suppressed; also recorded: Two of the three treated mice inhibited the allograft response to a degree equivalent to that observed in the Cyclosporin A-treated animals

## CNCCC(Oc1ccc(C(F)(F)F)cc1)c1ccccc1 (stereo not shown) [fluoxetine]
T cells
  conditioning effect of the media: can be prevented

## NNCCc1ccccc1 [phenelzine]
Human lymphocytes [1]; ConA 0.1 and 1 μg/ml, FIGS. 5A and 5B
  drug concentration giving significant inhibition: 10 to 100 µM
Human lymphocytes [1]; higher ConA stimulation (10 μg/ml)
  drug concentration giving full inhibition: 100 to 400 µM
Human lymphocytes [1]; highest ConA dose, 10 μg/ml, harvest 72 hours, FIG. 5C
  effect on proliferative response: no inhibition was observed
Human lymphocytes [1]
  effect on stimulation of ConA-stimulated human PBLs: completely shut down the stimulation

## COc1ccccc1N1CCN(CCN(C(=O)C2CCCCC2)c2ccccn2)CC1 [WAY 100635]
Human lymphocytes [1]
  in vitro effect on activation response / helper T cell proliferation (summary statement): significantly inhibits the activation response

## N[C@@H](Cc1ccc(Cl)cc1)C(=O)O (racemic) [PCPA, para-chlorophenylalanine]
Human lymphocytes [1]; ConA 1 μg/ml, human PBLs, FIG. 3
  effect on mitogenic response: inhibits the mitogenic response in a dose-dependent manner

## NC1(C(=O)O)CC2CCC1C2 (stereo not shown) [2-amino 2-norbornane carboxylic acid]
T cells
  conditioning effect of the media: can be prevented

## CC(O)C(C)OC(=O)[C@@H]1C[C@@H]2c3cccc4c3c(cn4C(C)C)C[C@H]2N(C)C1 (stereo partly shown) [LY 53857]
Human lymphocytes [1]
  effect on activation / proliferative response: inhibit the activation response at pharmacologically relevant concentrations
Human lymphocytes [3]
  effect on activation / proliferative response: inhibit the activation response at pharmacologically relevant concentrations

## OC(CN1CCN(c2cccc(Cl)c2)CC1)C(c1ccccc1)c1ccccc1 (stereo not shown) [BRL 15572]
Human lymphocytes [1]
  effect on activation / proliferative response: no effect upon the proliferative response
Human lymphocytes [3]
  effect on activation / proliferative response: no effect upon the proliferative response

## N[C@@H](Cc1c[nH]c2ccc(O)cc12)C(=O)O [5-hydroxy-tryptophan]
Human lymphocytes [1]; 25 μM, in the absence of PCPA, FIG. 3
  effect on proliferation response: significantly enhanced the proliferation response
Human lymphocytes [1]; added to PCPA-inhibited cells, FIG. 3
  reversal of PCPA inhibition of the mitogenic response: this inhibition can be reversed
